The results in this text go back to US4798897A, “Isoquinoline derivatives” (Asahi Kasei Kogyo Kabushiki Kaisha, priority 1987, dated 1989).

pEC50: −log10 of the molar value. Read-outs that look alike come from different tables or passages of the source.

The test system of one series is coronary artery. Nature of the series: Blood flow increase of coronary artery in anesthetized dogs, i.v. The settings on record: Canis lupus familiaris, iv; for change in vivo at 0.3 mg/kg: read-out: Increase in coronary artery blood flow. The format is in vivo, dog (mongrel). As to the method:
(§1) 2. Blood Flow Increase of Coronary, Vertebral and Femoral Arteries
(§2) A plethysmographic probe (manufactured and sold by NIHON KODEN CO., LTD., Japan) was mounted on the coronary, vertebral and femoral arteries, and blood flow was measured by means of an electromagnetic blood flowmeter (type:MF-27, manufactured and sold by NIHON KODEN CO., LTD., Japan). Under these conditions, the compounds of the present invention were intravenously administered through a polyethylene tube inserted to a femoral veinlet, and the change in blood flow was measured for 30 minutes by means of the electromagnetic blood flowmeter.
(§3) The effects (dilation of the arteries) of the compounds of the present invention on blood flow in coronary, vertebral and femoral arteries were examined according to the method as mentioned hereinbefore.

The next series relates to vertebral artery. The series can be described thus: Blood flow increase of vertebral artery in anesthetized dogs, i.v. It is filed as in vivo, dog (mongrel). The settings on record: Canis lupus familiaris, iv; for change in vivo at 0.3 mg/kg: read-out: Increase in vertebral artery blood flow. As to the method: as §1, §2, §3
For a further series, the system named is femoral artery. The series can be described thus: Blood flow increase of femoral artery in anesthetized dogs, i.v. The conditions noted are these: Canis lupus familiaris, iv; for change in vivo at 0.3 mg/kg: read-out: Increase in femoral artery blood flow. The format is in vivo, dog (mongrel). As to the method:
as §1, §2, §3

The next series has as its system mesenteric artery. Nature of the series: Relaxation of mesenteric artery (KCl-contracted). The settings on record: Oryctolagus cuniculus; rabbit mesenteric artery contracted with 15 to 20 mM KCl; read-out: ED50 (concentration attaining 50% of complete relaxation). As to the method:
1. Relaxation of Mesenteric Artery
A rabbit of Japanese local variety weighing about 3 kg was bled to death. Then, the abdomen of the rabbit was dissected to locate a mesenteric artery. […] Thus, shrinking and relaxation of the artery could be measured as a load on the transducer. To the organ bath, KCl was added so that the KCl concentration became 15 to 20 mM, causing the artery to shrink. Then, the compounds of the present invention were added to the organ bath to observe relaxation of the artery.
The effect of the compounds of the present invention on relaxation of mesenteric artery was examined according to the method as mentioned hereinbefore.

The subject of the next series is bronchial tubes. Nature of the series: Inhibition of histamine contraction of bronchial tubes (relaxation of bronchial tubes). The settings on record: Cavia porcellus; guinea pig bronchial tube, 10 μM histamine; Table 16; read-out: ED50 (50% decrease of histamine contraction of bronchial tubes). As to the method:
3. Inhibition of Histamine Contraction of Bronchial Tubes (Relaxation of Bronchial Tubes)
That is, a bronchial tube sample taken from a guinea pig was suspended in the 20-ml bath filled with Krebs-Henseleit nutrient solution and maintained at a temperature of 37° C. To the bath was added histamine so that the histamine concentration became 10 μM, causing the bronchial tube sample to contract. After the contraction became stable, the compounds of the present invention were added cumulatively to the bath to observe relaxation of the bronchial tube sample.
The effect of the compounds of the present invention on relaxation of bronchial tubes was examined according to the method as mentioned hereinbefore.

A short description of another series: Acute toxicity in mice. The settings on record: mouse, in vivo, iv; male mice. As for the experimental part: Using ddY male mice and Wistar male rats, the acute toxicity of the compounds of the present invention was examined with respect to LD50 according to the method proposed by K. Takagi et al. (K. Takagi and H. Ozawa, "Expeprimental Techniques in Pharmacology," p200-206 (1960), NANZANDO CO., LTD., Japan).
Compounds of the present invention were tested with respect to acute toxicities according to the method as mentioned hereinbefore.

As for `O=S(=O)(c1cccc2cnccc12)N1CCNCC1` [Comparative Compound No. 3, 1(5-Isoquinolinesulfonyl)piperazine, reference compound], the change in vivo at 1 mg/kg in the series on coronary artery (dog) was 70%; in the series on vertebral artery (dog) it was 98%; in the series on femoral artery (dog), 69%.

Turning to `O=S(=O)(c1cccc2cnccc12)N1CCCNCC1` [Comparative Compound No. 1, 1(5-Isoquinolinesulfonyl)homopiperazine, reference compound], the change in vivo at 0.3 mg/kg stood at 89% in the series on coronary artery (dog, i.v., 0.3 mg/kg); 160% with vertebral artery (dog, i.v., 0.3 mg/kg); 48% with femoral artery (dog, i.v., 0.3 mg/kg).

Take `CCCCN(CCN)S(=O)(=O)c1cccc2cnccc12` [Compound (3), N-(2-aminoethyl)-N-butyl-5-isoquinolinesulfonamide]: the pEC50 in the series on mesenteric artery was 5.70; in the series with bronchial tubes it was 5.30. Moreover, the change in vivo at 0.3 mg/kg was determined as 134% with coronary artery (dog, i.v., 0.3 mg/kg); 130% in the series with vertebral artery (dog, i.v., 0.3 mg/kg); 25% in the series on femoral artery (dog, i.v., 0.3 mg/kg). Moreover, the median lethal dose (LD50) (usually the dose expected to kill half of the subjects tested) in “Acute toxicity in mice” worked out at 105 mg/kg.

Take `NC1CCCN(S(=O)(=O)c2cccc3c(O)nccc23)C1` (centres unmarked) [Compound (84), 1-(1-hydroxy-5-isoquinolinesulfonyl)-3-aminopiperidine]: the pEC50 is 4.89 with mesenteric artery and 5.10 with bronchial tubes. For the same compound, the change in vivo at 1 mg/kg with coronary artery (dog) was 74%; in the series with vertebral artery (dog) it was 51%; in the series on femoral artery (dog), 27%. For the same compound, the median lethal dose (LD50) in the series “Acute toxicity in mice” came out at 141 mg/kg.

Turning to `CCCCCCNC1CCCN(S(=O)(=O)c2cccc3cnccc23)C1` (centres unmarked) [Compound (71), 1-(5-isoquinolinesulfonyl)-3-hexylaminopiperidine], the figures for the pEC50 in the series with mesenteric artery and in the series on bronchial tubes were 5.40 and 5.00, respectively. Further, the change in vivo at 1 mg/kg in the series with coronary artery (dog) amounted to 102%; in the series on vertebral artery (dog), 85%; with femoral artery (dog) it was 35%.

Turning to `O=S(=O)(c1cccc2c(O)nccc12)N1CCCC(NCc2ccccc2)C1` (centres unmarked) [Compound (86), 1-(1-hydroxy-5-isoquinolinesulfonyl)-3-benzylaminopiperidine], the figures for the pEC50 in the series with mesenteric artery and in the series with bronchial tubes were 4.77 and 4.96, respectively.

For `CCCCCCN(C)C1CCN(S(=O)(=O)c2cccc3cnccc23)CC1` [Compound (59), 1-(5-isoquinolinesulfonyl)-4-(N-hexyl-N-methylamino)piperidine], the pEC50 in the series on mesenteric artery is 4.68; in the series with bronchial tubes, 4.64.

Regarding `O=S(=O)(c1cccc2c(O)nccc12)N1CCCNCC1` [Comparative Compound No. 2, 1(1-Hydroxy-5-isoquinolinesulfonyl)-homopiperazine, reference compound], the change in vivo at 0.3 mg/kg in the series on coronary artery amounted to 27%; with vertebral artery, 48%; with femoral artery, 30%.

Regarding `CCCCCCN(CCNCCCC)S(=O)(=O)c1cccc2cnccc12` [Compound (27), N-(2-butylaminoethyl)-N-hexyl-5-isoquinolinesulfonamide], the pEC50 with mesenteric artery and in the series on bronchial tubes was 4.89 in each case.

Take `CCCCCCN(CC(N)CC)S(=O)(=O)c1cccc2cnccc12` (centres unmarked) [Compound (12), N-(2-aminobutyl)-N-hexyl-5-isoquinolinesulfonamide]: the pEC50 was 5.40 with mesenteric artery and 4.92 in the series with bronchial tubes.

With `NC1CCN(S(=O)(=O)c2cccc3c(Cl)nccc23)C1` (centres unmarked) [Compound (101), 1-(1-chloro-5-isoquinolinesulfonyl)-3-aminopyrrolidine], the pEC50 with mesenteric artery is 4.77; with bronchial tubes, 4.85.

In the case of `CCCNC1CCN(S(=O)(=O)c2cccc3c(O)nccc23)CC1` [Compound (81), 1-(1-hydroxy-5-isoquinolinesulfonyl)-4-propylaminopiperidine], the values for the pEC50 in the series on mesenteric artery and in the series with bronchial tubes were 4.92 and 4.85, respectively.

On to `CCCCCN(CCCCCCNCc1ccccc1)S(=O)(=O)c1cccc2cnccc12` [Compound (34), N-(6-benzylaminohexyl)-N-pentyl-5-isoquinolinesulfonamide], for which the pEC50 in the series with mesenteric artery was 4.70; in the series on bronchial tubes it was 4.68.

On to `CCCCCCNC1CCCN(S(=O)(=O)c2cccc3c(O)nccc23)C1` (centres unmarked) [Compound (88), 1-(1-hydroxy-5-isoquinolinesulfonyl)-3-hexylaminopiperidine], for which the pEC50 is 4.92 with mesenteric artery and 5.05 with bronchial tubes.

As to `O=S(=O)(c1cccc2cnccc12)N1CCCC(N2CCCCC2)C1` (centres unmarked) [Compound (72), 1-(5-isoquinolinesulfonyl)-3-piperidinopiperidine], the values for the pEC50 in the series on mesenteric artery and in the series on bronchial tubes were 4.62 and 4.68, respectively.

As to `O=S(=O)(c1cccc2c(O)nccc12)N1CCC(Nc2ccccc2)CC1` [Compound (82), 1-(1-hydroxy-5-isoquinolinesulfonyl)-4-phenylaminopiperidine], the pEC50 with mesenteric artery and with bronchial tubes was 4.68 each time.

Regarding `CCCCCCCCN(CCN)S(=O)(=O)c1cccc2cnccc12` [Compound (5), N-(2-aminoethyl)-N-octyl-5-isoquinolinesulfonamide], the pEC50 in the series with mesenteric artery was 5.70; in the series on bronchial tubes, 5.22.

`CCCCCCNCCN(CC)S(=O)(=O)c1cccc2cnccc12` [Compound (28), N-ethyl-N-(2-hexylaminoethyl)-5-isoquinolinesulfonamide]: the pEC50 in the series on mesenteric artery is 5.00; in the series on bronchial tubes it was 5.05. Besides, the change in vivo at 0.3 mg/kg turned out to be 114% in the series on coronary artery (dog, i.v., 0.3 mg/kg); 110% in the series on vertebral artery (dog, i.v., 0.3 mg/kg); 31% with femoral artery (dog, i.v., 0.3 mg/kg). In addition, the LD50 in “Acute toxicity in mice” is 145 mg/kg.

Take `CCCCN(C(C)C(C)N)S(=O)(=O)c1cccc2cnccc12` (centres unmarked) [Compound (16), N-(2-amino-1-methylpropyl)-N-butyl-5-isoquinolinesulfonamide]: the pEC50 with mesenteric artery and in the series on bronchial tubes was 4.89 throughout.

Regarding `O=S(=O)(c1cccc2c(O)nccc12)N1CCC(NCc2ccccc2)CC1` [Compound (83), 1-(1-hydroxy-5-isoquinolinesulfonyl)-4-benzylaminopiperidine], the pEC50 is 4.74 in the series on mesenteric artery and 4.72 in the series with bronchial tubes.

For `CCN(C(C)CN)S(=O)(=O)c1cccc2cnccc12` (centres unmarked) [Compound (17), N-(2-amino-1-methylethyl)-N-ethyl-5-isoquinolinesulfonamide], the values for the pEC50 in the series with mesenteric artery and in the series with bronchial tubes were 4.85 and 5.00, respectively.

Turning to `CCNC1CCN(S(=O)(=O)c2cccc3cnccc23)CC1` [Compound (53), 1-(5-isoquinolinesulfonyl)-4-ethylaminopiperidine], the pEC50 is 4.85 in the series with mesenteric artery and 4.96 in the series on bronchial tubes.

`CCNC1CCCN(S(=O)(=O)c2cccc3cnccc23)C1` (centres unmarked) [Compound (65), 1-(5-isoquinolinesulfonyl)-3-ethylaminopiperidine]: the pEC50 is 5.22 in the series on mesenteric artery and 5.30 in the series with bronchial tubes.

With `O=S(=O)(c1cccc2cnccc12)N1CCCC(NCCc2ccccc2)C1` (centres unmarked) [Compound (70), 1-(5-isoquinolinesulfonyl)-3-phenethylaminopiperidine], the pEC50 in the series on mesenteric artery was 5.15; with bronchial tubes, 4.89.

For the compound `CN(C)C1CCCN(S(=O)(=O)c2cccc3c(Cl)nccc23)C1` (centres unmarked) [Compound (99), 1-(1-chloro-5-isoquinolinesulfonyl)-3-dimethylaminopiperidine], the results for the pEC50 in the series on mesenteric artery and in the series with bronchial tubes were 4.68 and 4.72, respectively.
